Legend:
MDA-MB-435 cells = assay: Cell viability (Cell Counting Kit-8); type: cell-based, human; conditions: Homo sapiens, MDA-MB-435; 500 nM, 72 hours post-drug treatment; read-out: reduction of cell viability
Description: The cells were further cultured at 37° C. for 72 hours and cell viability was measured with Cell Counting Kit-8 (Dojindo Laboratories, Cat# CK04).

MSK1 = MSK1 phosphorylation, Western blot, MDA-MB-435 cells; type: cell-based, human; conditions: 10, 50, 100, 500 or 1000 nM, 4 hours
Description: After treatment the cells were lysized and used for Western blot analysis.
Samples were run on a SDS-PAGE gel and proteins were transferred onto a nitrocellulose membrane by a semi-dry transfer. Nitrocellulose was blocked with 5% skim milk in TBS with 0.5% Tween at room temperature for 1 hour and then probed with anti-p-MSK1 (Thr581) (#9595, Cell Signaling) antibody. The nitrocellulose was then probed with secondary antibodies, HRP-conjugated goat anti-rabbit IgG and HRP-conjugated horse anti-mouse IgG (#7074, #7076, Cell Signaling). LumiGLO reagent, 20× Peroxide (#7003, Cell Signaling) was used to visualize gel (see FIG. 36).
Samples were run on a SDS-PAGE gel and proteins were transferred onto a nitrocellulose membrane by a semi-dry transfer. Nitrocellulose was blocked with 5% skim milk in TBS with 0.5% Tween at room temperature for 1 hour and then probed with anti-p-MSK1 (Thr581) (#9595, Cell Signaling) antibody. Tubulin was used as a normalization control and was probed with Anti-Tubulin (T9026, Sigma) antibody.

[1] = tested on: Hs294T (or MDA-MB-435) cells; assay: Affymetrix transcriptional profiling; type: cell-based, human; conditions: 100 nM, 6 hours
Description: RNA was isolated from the cells 6 hours after treatment using the RNeasy kit according to the manufacturers instructions (Qiagen Cat. # 71404) and RNA quality was confirmed by spectrophotometric examination. cDNA was synthesized using the One-Cycle cDNA Synthesis Kit (Affymetrix Cat. # 900431) according to the manufacturers instructions. cDNA was labeled using the GeneChip IVT Labeling Kit (Affymetrix Cat. #900449) and analyzed in duplicate on the Affymetrix Human Genome U133Plus 2.0 gene chip array according to standard Affymetrix protocols. Data sheets from the Affymetrix Gene Chip Scanner 3000 were imported into Microsoft Excel and filtered by the following criteria: greater than or equal to 1.5 fold increase, greater than or equal to 0.4SE between replicates; and 50 (low stringency) or 500 (high stringency) for the lowest signal.
NAC is the rate-limiting amino acid for the production of the antioxidant glutathione. Addition of NAC to cells increases the levels of endogenous glutathione which in turn blocks oxidative stress and ROS generation. […] RNA was isolated from the cells 6 hours after treatment and Affymetrix analysis was performed as above.

Hsp70 [2] = assay: Hsp70 secretion by cultured tumor cells (ELISA); type: cell-based, human; conditions: MDA-MB-435, 0.04 μM or 0.2 μM, 72 h
Description: MDA-MB-435 tumor cells were seeded at 15,000 cells/150 μl/well of 48-well plate and cultured in DMEM supplemented with 10% fetal bovine serum. The compounds were dissolved in dimethyl sulfoxide (DMSO) then a solution was prepared containing 0.04 μM or a 0.2 μM in 25% DMSO and 75% culture medium. […] The medium was then separated from the cells and Hsp70 was measured by ELISA kit from Stressgen. Cell viability was checked by CCK-8 cell count assay (Dojindo) at 88 hr.

Hsp70 [3] = assay: Phase I trial: plasma Hsp70 (sandwich ELISA); type: in vivo, human; conditions: co-administered with paclitaxel
Description: Plasma Hsp70 was measured by a sandwich ELISA kit (Stressgen Bioreagents Victoria, British Columbia, CANADA) according to a modified protocol in house. In brief, Hsp70 in plasma specimens and serial concentrations of Hsp70 standard were captured onto 96-well plate on which anti-Hsp70 antibody was coated. Then captured Hsp70 was detected with a biotinylated anti-Hsp70 antibody followed by incubation with europium-conjugated streptavidin. After each incubation, unbound materials were removed by washing. Finally, antibody-Hsp70 complex was measured by time resolved fluorometry of europium. Concentration of Hsp70 was calculated from a standard curve.

Hsp70 [4] = assay: Cell surface expression of Hsp70, CEM cells (immunofluorescence); type: cell-based; conditions: 3 hrs
Description: After treatment, cells were rinsed one time in PBS then fixed in 2% Paraformaldehyde at room temperature for 20 minutes. Slides with the fixed cells were rinsed with PBS two times. Primary antibody mouse monoclonal anti-Hsp70 (Stressgen SPA-8 10) was diluted 1:100 in PBS and the slides were incubated 1 hour at 37° C. The slides were rinsed two times with PBS. Secondary antibody anti-mouse AlexaFluor 488 (Molecular Probes A-11001) was diluted 1:500 in PBS and the slides were incubated 30 min at 37° C. The slides were rinsed two times in PBS. DAPI (Molecular Probes D-3571) were diluted 1:10,000 in PBS and the slides were incubated at room temperature in dark for 5 min. The slides were rinsed two times in PBS, then once in deionized water and left to dry in dark until almost completely dry. Coverslips were mounted with Prolong Anti-fade Mounting Media (Molecular Probes P-748 1). The images were captured with a monochrome CCD camera SenSys (see FIGS. 27A-D and 28A-D) or by confocal microscopy (see FIG. 29A-E). In FIGS. 27A-D and 28A-D, the bright pink color on the surface of the MCF-7 cells (FIG. 27A-D) or CEM cells (FIG. 28A-D) indicates Hsp70 on the surface of the cells. In FIG. 29A-E the bright green color on the surface of the cell indicates Hsp70 on the surface of the HT29 cells.

Hsp70 [5] = assay: Hsp70 RNA induction, quantitative PCR, Hs294T cells; type: cell-based, human; conditions: 100 nM
Description: […] 500 ng of RNA from each sample was used for cDNA synthesis using iScript cDNA Synthesis Kit (Biorad, Cat# 170-8891). 1 uL of cDNA mixture was used with the iQ SYBR Green Supermix (Biorad, Cat# 170-8882) to perform quantitative PCR in an iCycler machine (Biorad) using standard protocols. QPCR for each sample/time point was performed in duplicate. The following primers for inducible human Hsp70 and gapdh were used:
Ct values were obtained from the iCycler program and used in an equation (2^−ΔΔCT) for determining the amount of target relative to gapdh expression. This compares the relative expression of Hsp70 to the corresponding levels of gapdh in each sample. Duplicate wells were averaged and graphed with their corresponding standard deviation.
Activation of HSF-1 by oxidative stress has been reported in the literature to require p38 kinase signaling in some cell lines.

CN(NC(=O)CC(=O)NN(C)C(=S)c1ccccc1)C(=S)c1ccccc1 [Compound 1]
cytotoxicity at 0.5 µM (MDA-MB-435 cells): ~90% | phosphorylation of MSK1 (MSK1): induces the phosphorylation of MSK1 in a dose dependent manner | increase in transcription of Hsp70 [1]: over 300 fold | induction of heat shock and metallothionein genes ([1]; Hs294T melanoma cells): robustly induced heat shock and metallothionein genes | gene expression profile (heat shock proteins, metallothioneins, antioxidants) ([1]; MDA-MB-435 cells): induces an oxidative stress signature profile | secretion of Hsp70 (Hsp70 [2]): increased the secretion of Hsp70 by the cells in a dose dependent manner | induction of Hsp70 protein in plasma (Hsp70 [3]): dose dependent | Hsp70 on the surface of cells (Hsp70 [4]; 0.05 μM): bright pink fluorescent color on the surface of the cells indicating Hsp70 | Hsp70 on the surface of cells (Hsp70 [4]; 0.1 μM): brighter than when cells were treated with 0.05 μM of Compound 1 | Hsp70 on the surface of cells (Hsp70 [4]; 0.5 μM): brighter than when cells were treated with 0.05 μM of Compound 1 but about the same as cells treated with 0.1 KIM | Hsp70 RNA expression induction (Hsp70 [5]; 3 hours): 3.9 fold | Hsp70 RNA expression induction (Hsp70 [5]; 6 hours): 8.3 fold
